Among the data in ChEMBL document CHEMBL1145498, “A systematic interaction map of validated kinase inhibitors with Ser/Thr kinases” (Proc Natl Acad Sci U S A, 2007) are ΔTm values, retold here.

For assay [1], the target named is Calcium/calmodulin-dependent protein kinase type II subunit alpha (Homo sapiens) (UniProt Q9UQM7).
The target in assay [2] is Calcium/calmodulin-dependent protein kinase type II subunit beta (Homo sapiens) (UniProt Q13554).
For assay [3], the target named is Cyclin-dependent kinase 2 (Homo sapiens, UniProt P24941).
In assay [4] the target is Serine/threonine-protein kinase Chk2 (Homo sapiens, UniProt O96017).
The target of assay [5] is Dual specificity protein kinase CLK2 (Homo sapiens) (UniProt P49760).
Dual specificity protein kinase CLK2 (Homo sapiens), sequence (P49760 whole entry, looked up): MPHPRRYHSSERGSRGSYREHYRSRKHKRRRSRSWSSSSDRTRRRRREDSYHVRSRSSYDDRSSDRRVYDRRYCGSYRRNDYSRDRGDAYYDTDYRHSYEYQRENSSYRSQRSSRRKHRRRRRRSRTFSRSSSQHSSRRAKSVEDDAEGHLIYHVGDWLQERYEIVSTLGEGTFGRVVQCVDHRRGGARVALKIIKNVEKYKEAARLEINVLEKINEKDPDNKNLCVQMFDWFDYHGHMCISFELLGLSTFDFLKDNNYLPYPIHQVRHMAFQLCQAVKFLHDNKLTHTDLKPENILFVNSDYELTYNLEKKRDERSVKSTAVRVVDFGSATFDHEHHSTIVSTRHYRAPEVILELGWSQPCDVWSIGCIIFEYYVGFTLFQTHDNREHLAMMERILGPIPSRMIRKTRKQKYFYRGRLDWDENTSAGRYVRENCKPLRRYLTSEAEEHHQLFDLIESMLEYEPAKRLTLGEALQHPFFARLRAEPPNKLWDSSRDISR
In assay [6] the target is Death-associated protein kinase 3 (Homo sapiens) (UniProt O43293).
Death-associated protein kinase 3 (Homo sapiens), sequence (O43293 whole entry, looked up): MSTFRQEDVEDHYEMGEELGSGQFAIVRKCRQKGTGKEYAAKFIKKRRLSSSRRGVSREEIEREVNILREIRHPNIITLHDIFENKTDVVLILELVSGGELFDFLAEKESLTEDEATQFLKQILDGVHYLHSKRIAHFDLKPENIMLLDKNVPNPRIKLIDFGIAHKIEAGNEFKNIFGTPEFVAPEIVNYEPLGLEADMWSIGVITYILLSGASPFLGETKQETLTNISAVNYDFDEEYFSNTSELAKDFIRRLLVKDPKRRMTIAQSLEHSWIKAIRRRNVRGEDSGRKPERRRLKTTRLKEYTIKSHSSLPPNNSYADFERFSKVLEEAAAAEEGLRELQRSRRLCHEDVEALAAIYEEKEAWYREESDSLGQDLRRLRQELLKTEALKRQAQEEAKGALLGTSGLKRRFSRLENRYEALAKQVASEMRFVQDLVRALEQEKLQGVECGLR
The target of assay [7] is T1, Myotonin-protein kinase (Homo sapiens) (UniProt Q09013).
T1 sequence (whole entry): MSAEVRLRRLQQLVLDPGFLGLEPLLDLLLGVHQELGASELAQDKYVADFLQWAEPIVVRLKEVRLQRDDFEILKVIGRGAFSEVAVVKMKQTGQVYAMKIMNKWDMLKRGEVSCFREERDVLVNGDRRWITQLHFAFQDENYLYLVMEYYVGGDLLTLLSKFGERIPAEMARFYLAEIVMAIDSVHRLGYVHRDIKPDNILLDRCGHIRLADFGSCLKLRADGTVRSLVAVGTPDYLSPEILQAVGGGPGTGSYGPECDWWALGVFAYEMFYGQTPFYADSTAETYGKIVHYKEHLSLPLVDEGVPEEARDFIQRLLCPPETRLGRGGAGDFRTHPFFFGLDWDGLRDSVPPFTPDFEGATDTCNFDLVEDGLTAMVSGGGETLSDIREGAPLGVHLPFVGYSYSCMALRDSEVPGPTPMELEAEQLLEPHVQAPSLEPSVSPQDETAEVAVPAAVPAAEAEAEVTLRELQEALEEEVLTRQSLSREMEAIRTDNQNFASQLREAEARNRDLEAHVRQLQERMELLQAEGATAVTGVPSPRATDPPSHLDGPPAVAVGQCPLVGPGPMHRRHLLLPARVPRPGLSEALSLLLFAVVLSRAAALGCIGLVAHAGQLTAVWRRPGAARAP

Assay [8] deals with T2, Mitogen-activated protein kinase kinase kinase 5 (Homo sapiens) (UniProt Q99683).
T2 sequence (whole entry): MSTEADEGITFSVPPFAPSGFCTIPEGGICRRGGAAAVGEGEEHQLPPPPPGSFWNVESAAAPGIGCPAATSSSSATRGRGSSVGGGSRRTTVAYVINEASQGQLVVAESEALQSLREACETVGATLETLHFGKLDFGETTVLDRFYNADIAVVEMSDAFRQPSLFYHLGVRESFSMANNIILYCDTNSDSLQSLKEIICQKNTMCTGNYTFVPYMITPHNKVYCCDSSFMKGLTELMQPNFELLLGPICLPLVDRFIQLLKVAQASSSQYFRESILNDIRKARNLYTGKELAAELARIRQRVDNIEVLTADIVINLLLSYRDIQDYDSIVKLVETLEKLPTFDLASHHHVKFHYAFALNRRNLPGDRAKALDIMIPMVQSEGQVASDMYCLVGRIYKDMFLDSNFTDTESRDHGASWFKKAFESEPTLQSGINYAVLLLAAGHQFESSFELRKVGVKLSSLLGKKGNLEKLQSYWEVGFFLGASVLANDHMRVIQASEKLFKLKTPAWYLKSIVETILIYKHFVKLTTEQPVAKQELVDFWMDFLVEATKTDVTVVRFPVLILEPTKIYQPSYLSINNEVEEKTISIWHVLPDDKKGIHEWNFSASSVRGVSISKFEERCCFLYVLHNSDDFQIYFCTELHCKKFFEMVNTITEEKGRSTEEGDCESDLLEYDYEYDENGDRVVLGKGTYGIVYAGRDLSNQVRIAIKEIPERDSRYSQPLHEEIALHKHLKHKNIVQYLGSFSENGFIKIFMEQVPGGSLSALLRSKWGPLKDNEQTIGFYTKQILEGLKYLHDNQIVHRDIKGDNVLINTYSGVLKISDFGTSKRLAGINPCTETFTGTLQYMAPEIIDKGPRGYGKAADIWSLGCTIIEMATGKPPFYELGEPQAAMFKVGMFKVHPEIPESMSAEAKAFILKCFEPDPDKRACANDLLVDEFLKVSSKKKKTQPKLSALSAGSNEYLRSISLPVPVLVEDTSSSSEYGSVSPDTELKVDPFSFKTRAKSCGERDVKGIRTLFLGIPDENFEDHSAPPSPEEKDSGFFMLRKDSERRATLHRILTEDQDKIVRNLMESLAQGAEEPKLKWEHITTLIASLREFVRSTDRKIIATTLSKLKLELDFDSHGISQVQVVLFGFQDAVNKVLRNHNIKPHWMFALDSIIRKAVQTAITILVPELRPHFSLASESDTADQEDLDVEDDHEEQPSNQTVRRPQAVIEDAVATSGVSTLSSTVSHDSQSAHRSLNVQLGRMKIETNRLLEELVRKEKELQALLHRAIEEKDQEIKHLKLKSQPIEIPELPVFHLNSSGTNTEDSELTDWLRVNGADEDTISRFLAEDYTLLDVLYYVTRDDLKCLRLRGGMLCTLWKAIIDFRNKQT

The target in assay [9] is Serine/threonine-protein kinase Nek6 (Homo sapiens) (UniProt Q9HC98).
Serine/threonine-protein kinase Nek6 (Homo sapiens), sequence (Q9HC98 whole entry): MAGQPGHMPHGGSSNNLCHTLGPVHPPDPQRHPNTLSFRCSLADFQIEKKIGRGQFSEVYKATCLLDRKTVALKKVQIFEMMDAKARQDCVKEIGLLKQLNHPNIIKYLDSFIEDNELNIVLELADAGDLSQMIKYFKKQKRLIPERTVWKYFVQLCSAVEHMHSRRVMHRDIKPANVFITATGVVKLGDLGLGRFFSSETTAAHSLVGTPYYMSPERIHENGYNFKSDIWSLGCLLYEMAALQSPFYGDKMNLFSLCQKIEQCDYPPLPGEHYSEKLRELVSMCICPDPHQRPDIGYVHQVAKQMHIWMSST
The target in assay [10] is Serine/threonine-protein kinase OSR1 (Homo sapiens) (UniProt O95747).
Serine/threonine-protein kinase OSR1 (Homo sapiens), sequence (O95747 2-527 limits assumed): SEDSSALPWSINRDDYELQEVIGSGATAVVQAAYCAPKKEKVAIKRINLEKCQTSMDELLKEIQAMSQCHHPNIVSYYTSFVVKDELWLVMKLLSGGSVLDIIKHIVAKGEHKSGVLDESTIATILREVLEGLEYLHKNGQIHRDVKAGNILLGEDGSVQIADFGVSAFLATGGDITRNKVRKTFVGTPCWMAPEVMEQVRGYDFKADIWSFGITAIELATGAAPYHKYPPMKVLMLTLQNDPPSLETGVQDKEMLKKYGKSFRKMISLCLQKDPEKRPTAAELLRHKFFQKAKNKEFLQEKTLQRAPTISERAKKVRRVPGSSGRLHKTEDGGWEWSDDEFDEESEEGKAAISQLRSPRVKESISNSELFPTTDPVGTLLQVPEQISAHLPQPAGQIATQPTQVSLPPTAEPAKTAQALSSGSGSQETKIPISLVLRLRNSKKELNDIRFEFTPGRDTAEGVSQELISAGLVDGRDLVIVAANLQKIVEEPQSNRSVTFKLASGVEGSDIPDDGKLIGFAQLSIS
Assay [11] addresses Serine/threonine-protein kinase PAK 6 (Homo sapiens) (UniProt Q9NQU5).
The target of assay [12] is Serine/threonine-protein kinase pim-1 (Homo sapiens) (UniProt P11309).
Serine/threonine-protein kinase pim-1 (Homo sapiens), sequence (P11309 whole entry, looked up): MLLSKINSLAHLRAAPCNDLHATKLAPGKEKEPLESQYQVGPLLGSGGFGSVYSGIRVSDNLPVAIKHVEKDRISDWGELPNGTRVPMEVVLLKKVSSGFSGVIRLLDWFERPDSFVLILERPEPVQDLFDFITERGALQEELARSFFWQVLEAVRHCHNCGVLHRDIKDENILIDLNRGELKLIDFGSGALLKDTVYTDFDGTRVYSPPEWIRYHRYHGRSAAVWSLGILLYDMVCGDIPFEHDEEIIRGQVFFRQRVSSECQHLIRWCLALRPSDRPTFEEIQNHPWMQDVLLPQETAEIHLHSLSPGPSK
Assay [13] deals with Serine/threonine-protein kinase PLK1 (Homo sapiens) (UniProt P53350).
Serine/threonine-protein kinase PLK1 (Homo sapiens), sequence (P53350 whole entry): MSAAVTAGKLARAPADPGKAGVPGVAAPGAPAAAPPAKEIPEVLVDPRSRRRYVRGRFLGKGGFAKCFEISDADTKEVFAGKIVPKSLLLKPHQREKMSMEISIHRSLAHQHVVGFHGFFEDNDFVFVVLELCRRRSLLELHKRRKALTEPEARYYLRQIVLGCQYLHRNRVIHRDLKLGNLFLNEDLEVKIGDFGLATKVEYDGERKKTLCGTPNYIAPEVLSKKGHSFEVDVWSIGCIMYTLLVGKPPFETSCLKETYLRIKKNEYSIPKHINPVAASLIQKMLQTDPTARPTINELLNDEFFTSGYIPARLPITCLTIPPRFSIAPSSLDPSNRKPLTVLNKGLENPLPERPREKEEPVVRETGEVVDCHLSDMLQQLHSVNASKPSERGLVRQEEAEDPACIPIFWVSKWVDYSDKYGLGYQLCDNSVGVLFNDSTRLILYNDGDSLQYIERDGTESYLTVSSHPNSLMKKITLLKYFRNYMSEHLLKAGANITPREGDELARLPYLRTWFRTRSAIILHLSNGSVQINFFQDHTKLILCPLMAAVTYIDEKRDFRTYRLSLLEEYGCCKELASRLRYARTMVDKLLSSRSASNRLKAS
In assay [14] the target is cAMP-dependent protein kinase catalytic subunit alpha (Homo sapiens) (UniProt P17612).
Assay [15] addresses Serine/threonine-protein kinase RIO2 (Homo sapiens) (UniProt Q9BVS4).
Assay [16] has as its target Serine/threonine-protein kinase 10 (Homo sapiens) (UniProt O94804).
The target of assay [17] is Serine/threonine-protein kinase 26 (Homo sapiens) (UniProt Q9P289).
The target in assay [18] is Serine/threonine-protein kinase VRK2 (Homo sapiens) (UniProt Q86Y07).
Serine/threonine-protein kinase VRK2 (Homo sapiens), sequence (Q86Y07 whole entry): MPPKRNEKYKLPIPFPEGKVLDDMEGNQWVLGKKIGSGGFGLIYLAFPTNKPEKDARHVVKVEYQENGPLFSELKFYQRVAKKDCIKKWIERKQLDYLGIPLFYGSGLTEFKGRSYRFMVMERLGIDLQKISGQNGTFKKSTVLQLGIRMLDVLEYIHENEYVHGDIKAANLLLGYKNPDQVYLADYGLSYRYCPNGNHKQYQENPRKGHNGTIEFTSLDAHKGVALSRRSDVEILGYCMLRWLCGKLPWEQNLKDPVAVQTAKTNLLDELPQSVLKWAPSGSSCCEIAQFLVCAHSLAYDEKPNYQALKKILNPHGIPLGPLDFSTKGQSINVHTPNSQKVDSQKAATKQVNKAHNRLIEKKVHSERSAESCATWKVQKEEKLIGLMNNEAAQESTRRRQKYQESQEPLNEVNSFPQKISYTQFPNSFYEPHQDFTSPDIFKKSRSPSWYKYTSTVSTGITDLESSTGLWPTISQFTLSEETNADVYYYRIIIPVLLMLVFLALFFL

Serine/threonine-protein kinase PAK 6 (Homo sapiens), sequence (Q9NQU5 whole entry, looked up): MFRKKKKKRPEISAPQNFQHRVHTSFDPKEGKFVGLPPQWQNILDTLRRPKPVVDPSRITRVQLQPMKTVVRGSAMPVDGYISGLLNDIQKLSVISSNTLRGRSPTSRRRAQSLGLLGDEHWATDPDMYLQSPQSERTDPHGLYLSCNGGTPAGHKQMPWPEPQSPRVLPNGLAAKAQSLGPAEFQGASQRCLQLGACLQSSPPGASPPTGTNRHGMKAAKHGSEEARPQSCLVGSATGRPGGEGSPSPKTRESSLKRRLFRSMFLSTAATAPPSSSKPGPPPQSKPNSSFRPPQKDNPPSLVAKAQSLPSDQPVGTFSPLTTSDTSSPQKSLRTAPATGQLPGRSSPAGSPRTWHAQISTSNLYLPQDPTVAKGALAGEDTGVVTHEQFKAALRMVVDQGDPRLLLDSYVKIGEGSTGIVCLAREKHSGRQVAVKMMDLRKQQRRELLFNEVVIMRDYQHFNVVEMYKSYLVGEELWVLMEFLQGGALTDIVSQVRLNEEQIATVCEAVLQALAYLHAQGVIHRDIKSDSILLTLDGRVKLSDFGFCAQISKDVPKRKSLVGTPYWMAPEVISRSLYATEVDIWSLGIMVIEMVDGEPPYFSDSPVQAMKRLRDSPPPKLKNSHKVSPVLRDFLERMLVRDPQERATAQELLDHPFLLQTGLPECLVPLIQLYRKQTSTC
Serine/threonine-protein kinase 10 (Homo sapiens), sequence (O94804 whole entry, looked up): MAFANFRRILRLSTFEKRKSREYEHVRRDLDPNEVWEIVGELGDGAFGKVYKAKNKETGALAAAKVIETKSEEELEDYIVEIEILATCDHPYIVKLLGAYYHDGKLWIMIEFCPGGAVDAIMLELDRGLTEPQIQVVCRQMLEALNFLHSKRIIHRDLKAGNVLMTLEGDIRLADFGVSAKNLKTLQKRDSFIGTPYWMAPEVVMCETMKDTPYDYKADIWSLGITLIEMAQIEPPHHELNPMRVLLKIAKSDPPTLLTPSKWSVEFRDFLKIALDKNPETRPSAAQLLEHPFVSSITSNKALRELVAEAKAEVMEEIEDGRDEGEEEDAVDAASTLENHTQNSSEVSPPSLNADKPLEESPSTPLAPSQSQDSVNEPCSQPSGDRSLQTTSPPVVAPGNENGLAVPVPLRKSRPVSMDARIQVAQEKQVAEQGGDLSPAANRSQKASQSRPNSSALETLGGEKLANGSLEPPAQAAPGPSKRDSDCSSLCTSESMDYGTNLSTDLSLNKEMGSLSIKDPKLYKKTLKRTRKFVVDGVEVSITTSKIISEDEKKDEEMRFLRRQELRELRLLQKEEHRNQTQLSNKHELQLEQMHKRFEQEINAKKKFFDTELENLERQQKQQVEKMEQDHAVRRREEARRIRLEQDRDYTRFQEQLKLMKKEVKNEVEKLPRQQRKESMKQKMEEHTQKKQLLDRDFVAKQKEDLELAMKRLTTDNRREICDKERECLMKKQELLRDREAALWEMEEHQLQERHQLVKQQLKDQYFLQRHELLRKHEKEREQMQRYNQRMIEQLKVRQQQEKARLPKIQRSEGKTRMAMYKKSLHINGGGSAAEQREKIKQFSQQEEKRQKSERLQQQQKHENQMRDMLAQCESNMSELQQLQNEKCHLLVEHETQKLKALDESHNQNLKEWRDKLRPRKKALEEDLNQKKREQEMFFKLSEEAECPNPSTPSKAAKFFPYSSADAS

Turning to `N#C/C(=C\c1ccc(O)c(O)c1)C(=O)NCc1ccccc1`, the ΔTm (as a rule, the shift of the melting midpoint relative to a reference) in [1] turned out to be 0.4 °C; in [2], 0.2 °C; in [3], 0.9 °C; in assay [4], 0.4 °C; in assay [5], 0.7 °C; in [6], 1.8 °C. Besides, the ΔTm in [7] was -0.6 °C; in assay [8], -0.2 °C; in assay [9], 1 °C; in assay [10], 0.7 °C; in assay [11] it was -0.4 °C; in assay [12], 2.1 °C. Moreover, the ΔTm was 0.7 °C in [13]; 0.6 °C in [14]; 1.5 °C in assay [15]; 0.7 °C in [16]; 0 °C in assay [17]; 0.2 °C in [18].
On to `COc1cc2ncnc(Nc3ccc(F)c(Cl)c3)c2cc1OCCCN1CCOCC1`, for which the ΔTm was determined as 0.3 °C in [1]; 0.3 °C in [2]; 0 °C in [3]; 3.1 °C in assay [4]; 0 °C in [5]; 3.2 °C in assay [6]. For the same compound, the ΔTm in assay [7] was 3.6 °C; in assay [8], 0.1 °C; in assay [9], -0.4 °C; in assay [10] it was 0.2 °C; in assay [11], 0 °C; in assay [12], 3.4 °C. The ΔTm is 1.2 °C in [13]; 1.1 °C in assay [14]; 2 °C in assay [15]; 0 °C in assay [16]; 1.2 °C in [17]; 0.3 °C in assay [18].
Take `COC1=C2C[C@@H](C)C[C@H](OC)[C@H](O)[C@@H](C)/C=C(\C)[C@H](OC(N)=O)[C@@H](OC)/C=C\C=C(/C)C(=O)NC(=CC1=O)C2=O`: the ΔTm in assay [1] was -0.1 °C; in assay [2], -0.1 °C; in [3], 0.5 °C; in assay [4], 0.2 °C; in [5], -0.1 °C; in assay [6], -0.6 °C. In addition, the ΔTm is -0.3 °C in assay [7]; -0.5 °C in [8]; -0.2 °C in assay [9]; 0.8 °C in [10]; 0.3 °C in assay [11]; -0.2 °C in [12]. Besides, the ΔTm in assay [13] is 0.1 °C; in assay [14], 1.1 °C; in [15] it was -0.6 °C; in assay [16], 0.5 °C; in assay [17], -0.3 °C; in [18], 0.2 °C.
On to `O=S(=O)(NCCNC/C=C/c1ccc(Br)cc1)c1cccc2cnccc12`, for which the ΔTm in [1] was 0.5 °C; in [2] it was -0.2 °C; in assay [3] it was -0.5 °C; in [4] it was 2.6 °C; in [5], 0.7 °C; in assay [6], 3.8 °C. The ΔTm in assay [7] is -0.6 °C; in assay [8], -0.3 °C; in [9], -0.1 °C; in [10] it was 0.9 °C; in assay [11], 1.5 °C; in [12] it was -0.2 °C. In addition, the shift in melting temperature (ΔTm) is 1 °C in assay [13]; 6.9 °C in assay [14]; 0 °C in assay [15]; -0.4 °C in assay [16]; 0.9 °C in [17]; 0.1 °C in assay [18].
In the case of `O=[N+]([O-])c1ccc(-c2nc(-c3ccc(F)cc3)c(-c3ccncc3)[nH]2)cc1`, the ΔTm in [1] is 2.2 °C; in assay [2] it was -0.5 °C; in [3] it was 1.8 °C; in [4] it was -0.4 °C; in assay [5], 0.1 °C; in assay [6], 0.1 °C. The ΔTm in [7] was -0.2 °C; in assay [8] it was -0.3 °C; in assay [9], 0.9 °C; in [10] it was -0.3 °C; in assay [11], -0.2 °C; in assay [12], -1.2 °C. Also, the ΔTm is -1.4 °C in [13]; 1.6 °C in [14]; 2.5 °C in assay [15]; 5.9 °C in assay [16]; -1.4 °C in [17]; 1.5 °C in assay [18].
With `CC(C)c1cc(/C=C(\C#N)C(=O)NCCCc2ccccc2)cc(C(C)C)c1O`, the ΔTm is 0.6 °C in assay [1]; 1.5 °C in [2]; 1.2 °C in assay [3]; -0.1 °C in assay [4]; 1.3 °C in assay [5]; 0.7 °C in [6]. The ΔTm in assay [7] was determined as 1 °C; in assay [8] it was 0.3 °C; in assay [9] it was 0.9 °C; in assay [10], 0.9 °C; in [11] it was 0.1 °C; in assay [12] it was 0.8 °C. The ΔTm in assay [13] is 0.4 °C; in assay [14] it was 0.5 °C; in assay [15], -0.5 °C; in [16] it was -0.1 °C; in [17], 2.5 °C; in assay [18], 0.7 °C.
Consider `CC(C)n1cnc2c(NCc3ccccc3)nc(NCCCO)nc21`, for which the ΔTm in assay [1] amounted to 1.8 °C; in assay [2] it was 0.1 °C; in assay [3], 0.9 °C; in assay [4] it was 0.5 °C; in [5], 2.2 °C; in assay [6] it was 0.7 °C. For the same compound, the ΔTm in [7] was found to be 0 °C; in [8] it was 0.2 °C; in [9], 0.4 °C; in assay [10], 0.3 °C; in assay [11] it was 0.6 °C; in assay [12] it was 0.1 °C. The ΔTm in assay [13] was 1.8 °C; in [14], 0.3 °C; in [15], 0.4 °C; in assay [16], -0.4 °C; in assay [17], 0.1 °C; in assay [18], 1.2 °C.
